Publication PMC7462985, “Inhibitors of BRAF dimers using an allosteric site” (Nature Communications, 2020)

Columns and labels:
FLT3 = molecular target: T1, FLT3 (Homo sapiens, UniProt P36888); test: SelectScreen kinase activity assay; assay type: biochemical; parameters: purchased Invitrogen (SelectScreen service); settings: PHI1 versus Ponatinib
T1 sequence (P36888 27-993): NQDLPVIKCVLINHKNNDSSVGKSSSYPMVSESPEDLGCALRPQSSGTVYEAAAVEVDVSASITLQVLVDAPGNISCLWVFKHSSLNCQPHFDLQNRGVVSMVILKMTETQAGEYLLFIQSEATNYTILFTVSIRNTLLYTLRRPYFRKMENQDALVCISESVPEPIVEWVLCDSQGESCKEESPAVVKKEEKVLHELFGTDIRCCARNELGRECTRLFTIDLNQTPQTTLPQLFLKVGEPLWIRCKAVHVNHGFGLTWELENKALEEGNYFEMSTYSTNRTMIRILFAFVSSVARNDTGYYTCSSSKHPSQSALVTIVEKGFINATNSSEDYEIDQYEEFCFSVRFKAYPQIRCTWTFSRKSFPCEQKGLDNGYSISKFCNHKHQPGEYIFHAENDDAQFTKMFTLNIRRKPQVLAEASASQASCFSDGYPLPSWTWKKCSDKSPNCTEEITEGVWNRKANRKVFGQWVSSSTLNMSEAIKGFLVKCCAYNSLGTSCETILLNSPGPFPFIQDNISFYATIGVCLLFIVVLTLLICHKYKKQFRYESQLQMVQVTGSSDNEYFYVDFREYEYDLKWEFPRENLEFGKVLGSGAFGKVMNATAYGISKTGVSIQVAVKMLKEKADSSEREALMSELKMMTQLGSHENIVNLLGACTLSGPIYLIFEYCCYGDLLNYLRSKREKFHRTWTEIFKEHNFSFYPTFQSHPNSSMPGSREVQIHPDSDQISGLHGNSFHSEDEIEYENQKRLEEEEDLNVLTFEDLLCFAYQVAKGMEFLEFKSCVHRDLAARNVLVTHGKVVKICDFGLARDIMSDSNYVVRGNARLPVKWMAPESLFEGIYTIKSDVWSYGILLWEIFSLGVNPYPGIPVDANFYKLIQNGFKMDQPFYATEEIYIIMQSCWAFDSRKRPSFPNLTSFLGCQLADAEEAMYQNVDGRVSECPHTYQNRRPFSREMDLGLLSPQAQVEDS
Procedure: (§1) BRAF kinase assays were performed using the Z’-LYTE™ enzymatic assay (Invitrogen, USA). […] Titrations were performed using a 1:3 dilution. Assays were performed using SelectScreen (Invitrogen).

ACVR1B = molecular target: T2, ACVR1B (Homo sapiens, UniProt P36896); test: KINOMEscan scanEDGE binding; settings: KinomeEDGE scan, compound at 1 μΜ
T2 construct: purchased Eurofins/DiscoverX KINOMEscan (scanEDGE panel)

KIT = KIT (Homo sapiens, UniProt P10721); test: SelectScreen kinase activity assay; assay type: biochemical; parameters: purchased Invitrogen (SelectScreen service); settings: 100 μM ATP
Procedure: as §1

ABL1-phosphorylated = molecular target: T3, ABL1-phosphorylated (Homo sapiens, UniProt P00519); test: KINOMEscan scanEDGE binding; settings: KinomeEDGE scan, compound at 1 μΜ
T3 construct: purchased Eurofins/DiscoverX KINOMEscan (scanEDGE panel)

ABL1-nonphosphorylated = molecular target: T4, ABL1-nonphosphorylated (Homo sapiens, UniProt P00519); test: KINOMEscan scanEDGE binding; settings: KinomeEDGE scan, compound at 1 μΜ
T4 construct: purchased Eurofins/DiscoverX KINOMEscan (scanEDGE panel)

EGFR(L858R) = molecular target: T5, EGFR(L858R) (Homo sapiens, UniProt P00533, L858R); test: KINOMEscan scanEDGE binding; settings: KinomeEDGE scan, compound at 1 μΜ
T5 construct: purchased Eurofins/DiscoverX KINOMEscan (scanEDGE panel)

[1] = molecular target: T6, JAK2(JH1domain-catalytic) (Homo sapiens, UniProt O60674); test: KINOMEscan scanEDGE binding; settings: KinomeEDGE scan, compound at 1 μΜ
T6 construct: JAK2(JH1domain-catalytic); purchased Eurofins/DiscoverX KINOMEscan (scanEDGE panel)

p38-alpha = molecular target: T7, p38-alpha (Homo sapiens, UniProt Q16539); test: KINOMEscan scanEDGE binding; settings: KinomeEDGE scan, compound at 1 μΜ
T7 construct: purchased Eurofins/DiscoverX KINOMEscan (scanEDGE panel)

FGFR3 = molecular target: T8, FGFR3 (Homo sapiens, UniProt P22607); test: KINOMEscan scanEDGE binding; settings: KinomeEDGE scan, compound at 1 μΜ
T8 construct: purchased Eurofins/DiscoverX KINOMEscan (scanEDGE panel)

CRAF = molecular target: T9, CRAF (Homo sapiens, UniProt P04049); test: CRAF kinase activity assay (western blot); assay type: biochemical
T9 construct: purchased Millipore #17-360
Procedure: Kinase activity assays were performed using BRAF Kinase Assay Kit (#17-359), CRAF Kinase Assay Kit (#17-360) and MAP Kinase/Erk Assay Kit (#17-191), following protocols by the provider (Millipore) with some modifications. In brief, BRAF and CRAF, and MEK1 recombinant proteins were incubated for 15 min with inhibitors, then corresponding substrates were added and incubated for 30 min at 30 °C and assayed via western blot.

EGFR = molecular target: T10, EGFR (Homo sapiens, UniProt P00533); test: KINOMEscan scanEDGE binding; settings: KinomeEDGE scan, compound at 1 μΜ
T10 construct: purchased Eurofins/DiscoverX KINOMEscan (scanEDGE panel)

T8 sequence (P22607 23-806): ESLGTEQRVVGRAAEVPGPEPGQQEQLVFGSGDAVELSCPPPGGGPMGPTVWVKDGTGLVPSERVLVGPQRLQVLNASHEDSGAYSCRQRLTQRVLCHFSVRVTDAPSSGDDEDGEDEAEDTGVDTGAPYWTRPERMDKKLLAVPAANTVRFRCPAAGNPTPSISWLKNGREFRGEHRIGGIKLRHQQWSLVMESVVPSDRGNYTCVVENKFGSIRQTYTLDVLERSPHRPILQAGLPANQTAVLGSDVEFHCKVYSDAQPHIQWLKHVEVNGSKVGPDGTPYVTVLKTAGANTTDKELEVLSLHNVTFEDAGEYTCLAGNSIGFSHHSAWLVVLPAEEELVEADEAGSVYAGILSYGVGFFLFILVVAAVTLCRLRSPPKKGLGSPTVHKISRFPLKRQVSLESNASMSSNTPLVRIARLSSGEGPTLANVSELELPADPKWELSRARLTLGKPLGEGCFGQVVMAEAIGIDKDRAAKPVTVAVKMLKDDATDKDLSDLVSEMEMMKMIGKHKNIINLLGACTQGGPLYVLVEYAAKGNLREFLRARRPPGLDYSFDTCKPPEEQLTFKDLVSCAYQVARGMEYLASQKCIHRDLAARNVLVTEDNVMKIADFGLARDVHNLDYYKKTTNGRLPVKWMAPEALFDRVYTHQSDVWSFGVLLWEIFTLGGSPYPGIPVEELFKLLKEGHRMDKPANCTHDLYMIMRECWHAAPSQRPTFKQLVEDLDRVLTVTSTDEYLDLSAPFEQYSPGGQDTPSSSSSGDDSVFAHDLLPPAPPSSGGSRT
T6 sequence (O60674 840-1132 limits assumed): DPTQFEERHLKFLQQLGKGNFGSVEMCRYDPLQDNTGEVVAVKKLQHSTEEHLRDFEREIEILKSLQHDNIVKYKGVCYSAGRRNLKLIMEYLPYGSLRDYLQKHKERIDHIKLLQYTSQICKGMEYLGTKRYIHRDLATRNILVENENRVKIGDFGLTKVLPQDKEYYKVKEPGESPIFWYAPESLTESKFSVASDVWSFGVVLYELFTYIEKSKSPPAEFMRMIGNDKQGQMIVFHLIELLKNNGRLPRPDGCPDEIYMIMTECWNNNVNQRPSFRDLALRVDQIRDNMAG
T7 sequence (Q16539 whole entry): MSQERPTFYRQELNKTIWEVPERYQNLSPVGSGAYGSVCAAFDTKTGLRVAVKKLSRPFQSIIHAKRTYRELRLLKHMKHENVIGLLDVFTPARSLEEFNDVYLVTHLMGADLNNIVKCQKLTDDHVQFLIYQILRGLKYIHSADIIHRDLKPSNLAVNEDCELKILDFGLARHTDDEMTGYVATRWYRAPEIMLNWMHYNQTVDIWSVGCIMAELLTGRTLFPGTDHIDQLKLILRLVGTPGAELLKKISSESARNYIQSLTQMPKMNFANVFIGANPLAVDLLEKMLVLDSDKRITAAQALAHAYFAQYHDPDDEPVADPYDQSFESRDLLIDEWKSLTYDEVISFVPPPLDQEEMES
KIT, sequence (P10721 26-976): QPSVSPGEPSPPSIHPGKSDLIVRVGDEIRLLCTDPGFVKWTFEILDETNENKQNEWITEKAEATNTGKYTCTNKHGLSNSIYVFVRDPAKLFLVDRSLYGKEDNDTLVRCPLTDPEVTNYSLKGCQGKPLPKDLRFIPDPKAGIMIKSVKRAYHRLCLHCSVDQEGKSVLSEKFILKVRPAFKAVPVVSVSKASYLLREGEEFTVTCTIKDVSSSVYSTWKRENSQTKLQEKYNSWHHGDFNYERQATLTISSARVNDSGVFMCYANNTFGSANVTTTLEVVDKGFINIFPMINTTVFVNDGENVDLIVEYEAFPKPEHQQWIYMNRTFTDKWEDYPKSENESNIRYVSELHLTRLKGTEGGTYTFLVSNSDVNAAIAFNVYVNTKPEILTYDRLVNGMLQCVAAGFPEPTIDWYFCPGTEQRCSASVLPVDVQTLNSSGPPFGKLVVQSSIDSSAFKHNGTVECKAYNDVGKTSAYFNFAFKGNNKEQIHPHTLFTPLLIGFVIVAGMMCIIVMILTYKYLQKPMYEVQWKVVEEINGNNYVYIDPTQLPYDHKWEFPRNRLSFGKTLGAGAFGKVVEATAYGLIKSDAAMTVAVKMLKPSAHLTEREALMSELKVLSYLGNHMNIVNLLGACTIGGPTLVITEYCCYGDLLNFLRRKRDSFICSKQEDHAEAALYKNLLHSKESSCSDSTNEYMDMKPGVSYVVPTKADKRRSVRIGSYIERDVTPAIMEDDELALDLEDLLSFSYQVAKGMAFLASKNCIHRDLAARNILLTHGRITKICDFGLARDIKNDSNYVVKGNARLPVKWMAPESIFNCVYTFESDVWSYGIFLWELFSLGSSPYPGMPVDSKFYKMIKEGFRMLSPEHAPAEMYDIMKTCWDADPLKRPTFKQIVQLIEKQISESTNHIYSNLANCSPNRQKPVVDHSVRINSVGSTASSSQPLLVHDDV
T2 sequence (P36896 24-505): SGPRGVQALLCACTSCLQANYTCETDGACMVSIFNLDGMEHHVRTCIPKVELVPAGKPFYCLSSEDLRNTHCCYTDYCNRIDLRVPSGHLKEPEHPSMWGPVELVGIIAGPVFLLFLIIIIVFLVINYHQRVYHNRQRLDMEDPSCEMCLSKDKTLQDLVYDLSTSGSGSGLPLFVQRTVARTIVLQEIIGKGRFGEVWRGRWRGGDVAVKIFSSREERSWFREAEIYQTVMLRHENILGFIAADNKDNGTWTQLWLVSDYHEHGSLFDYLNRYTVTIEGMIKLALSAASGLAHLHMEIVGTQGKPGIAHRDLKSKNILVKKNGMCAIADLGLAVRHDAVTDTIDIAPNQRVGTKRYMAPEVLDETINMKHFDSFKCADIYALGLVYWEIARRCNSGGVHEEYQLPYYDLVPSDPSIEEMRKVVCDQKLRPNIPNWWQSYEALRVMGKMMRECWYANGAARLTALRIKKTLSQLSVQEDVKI
T3 sequence (P00519 whole entry): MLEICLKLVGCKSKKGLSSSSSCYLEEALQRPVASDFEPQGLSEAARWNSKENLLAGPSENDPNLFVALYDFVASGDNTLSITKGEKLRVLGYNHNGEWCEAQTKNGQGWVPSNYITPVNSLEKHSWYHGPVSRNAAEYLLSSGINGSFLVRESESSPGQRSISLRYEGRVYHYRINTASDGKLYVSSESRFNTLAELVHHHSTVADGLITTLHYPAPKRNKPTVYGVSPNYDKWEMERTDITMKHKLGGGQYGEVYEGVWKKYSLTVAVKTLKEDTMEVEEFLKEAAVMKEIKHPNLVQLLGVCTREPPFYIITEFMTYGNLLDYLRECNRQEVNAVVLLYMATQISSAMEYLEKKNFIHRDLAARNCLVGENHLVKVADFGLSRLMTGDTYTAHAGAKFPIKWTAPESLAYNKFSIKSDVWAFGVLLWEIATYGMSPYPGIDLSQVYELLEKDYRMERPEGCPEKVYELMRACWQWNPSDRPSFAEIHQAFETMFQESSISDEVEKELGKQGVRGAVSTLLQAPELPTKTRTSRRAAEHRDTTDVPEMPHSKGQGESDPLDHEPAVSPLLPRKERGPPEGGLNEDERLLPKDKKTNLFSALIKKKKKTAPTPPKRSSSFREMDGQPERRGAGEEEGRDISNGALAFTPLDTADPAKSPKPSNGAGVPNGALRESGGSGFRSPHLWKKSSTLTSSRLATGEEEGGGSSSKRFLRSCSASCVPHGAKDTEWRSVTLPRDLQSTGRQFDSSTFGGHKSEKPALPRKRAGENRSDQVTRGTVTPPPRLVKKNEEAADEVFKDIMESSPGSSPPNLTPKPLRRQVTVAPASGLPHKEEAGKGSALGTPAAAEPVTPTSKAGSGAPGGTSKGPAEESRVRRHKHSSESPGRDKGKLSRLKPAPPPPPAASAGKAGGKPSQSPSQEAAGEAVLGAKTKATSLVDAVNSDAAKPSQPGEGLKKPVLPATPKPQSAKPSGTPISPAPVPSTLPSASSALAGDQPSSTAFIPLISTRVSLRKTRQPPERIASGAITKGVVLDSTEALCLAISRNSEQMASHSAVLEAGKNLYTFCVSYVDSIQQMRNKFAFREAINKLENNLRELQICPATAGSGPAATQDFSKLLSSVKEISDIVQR
T4 sequence (P00519 whole entry): as above
T9 sequence (P04049 whole entry, species assumed): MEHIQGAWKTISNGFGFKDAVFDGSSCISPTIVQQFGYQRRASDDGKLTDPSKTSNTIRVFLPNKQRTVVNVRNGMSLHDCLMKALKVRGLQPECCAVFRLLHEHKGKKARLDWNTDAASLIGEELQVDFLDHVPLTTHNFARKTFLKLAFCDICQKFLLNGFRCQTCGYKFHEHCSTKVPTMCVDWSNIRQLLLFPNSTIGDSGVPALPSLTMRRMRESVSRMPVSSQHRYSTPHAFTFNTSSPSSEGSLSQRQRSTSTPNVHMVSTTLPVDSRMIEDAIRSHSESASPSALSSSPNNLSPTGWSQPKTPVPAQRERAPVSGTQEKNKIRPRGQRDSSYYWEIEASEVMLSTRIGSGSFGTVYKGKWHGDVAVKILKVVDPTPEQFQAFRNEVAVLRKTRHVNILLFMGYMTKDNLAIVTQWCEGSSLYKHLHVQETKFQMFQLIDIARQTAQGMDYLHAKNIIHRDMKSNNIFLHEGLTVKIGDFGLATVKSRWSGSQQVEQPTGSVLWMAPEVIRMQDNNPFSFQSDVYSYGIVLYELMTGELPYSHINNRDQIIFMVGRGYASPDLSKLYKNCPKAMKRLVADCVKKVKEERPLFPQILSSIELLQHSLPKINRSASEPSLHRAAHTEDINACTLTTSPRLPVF

| reduction of inhibitory activity on FLT3 compared to Ponatinib (FLT3) | % Ctrl ACVR1B (ACVR1B) [% Ctrl] | IC50 (KIT) [nM] | % Ctrl ABL1-phosphorylated (ABL1-phosphorylated) [% Ctrl] | % Ctrl ABL1-nonphosphorylated (ABL1-nonphosphorylated) [% Ctrl] | SMILES | % Ctrl EGFR(L858R) (EGFR(L858R)) [% Ctrl] | % Ctrl JAK2(JH1domain-catalytic) [1] [% Ctrl] | % Ctrl p38-alpha (p38-alpha) [% Ctrl] | % Ctrl FGFR3 (FGFR3) [% Ctrl] | inhibition of CRAF kinase activity (in words) (CRAF) | % Ctrl EGFR (EGFR) [% Ctrl] |
| --- | --- | --- | --- | --- | --- | --- | --- | --- | --- | --- | --- |
| tenfold | 0.4 | 548 ± 21 | 0.1 | 0 | Cc1ccc(C(=O)Nc2ccc(CNCCN3CCOCC3)c(C(F)(F)F)c2)cc1C#Cc1cnc2cccnn12 [PHI1] | – | – | – | – | – | – |
| – | – | – | – | – | Cc1ccc(C(=O)Nc2ccc(CN3CCN(C)CC3)c(C(F)(F)F)c2)cc1C#Cc1cnc2cccnn12 [Ponatinib, 3-[2-(imidazo[1,2-b]pyridazin-3-yl)ethynyl]-4-methyl-N-{4-[(4-methylpiperazin-1-yl)methyl]-3-(trifluoromethyl)phenyl}benzamide] | 19 | 9.5 | 0 | 0.9 | potently inhibited | 15 |
